Values joined by “and” are separate entries in the source; they are usually repeats but may differ in a detail not shown here. Equal values may be shown once.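 Five concentrations, 48 hours, 96-well plates. GI50: concentration for 50% inhibition of growth. TGI is the concentration that stops growth completely.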

For 13 compounds, GI50 and TGI results are on record in PubChem BioAssay (NCI).

Among the test systems are HL-60(TB) leukemia; OVCAR-8 ovarian; UACC-257 melanoma; SR leukemia; HOP-92 NSCLC; SF-295 CNS; SN12C renal; RXF 393 renal; HOP-62 NSCLC; U251 CNS.
Assay in all cases: NCI-60 cell line screen, 48 h

`CCCc1cc2c(=O)c(C(=O)OC)c[nH]c2cc1N(CC)CC`: the GI50 in the assay with HL-60(TB) leukemia is 62.5 µM; with OVCAR-8 ovarian, 29.4 µM; in the assay on UACC-257 melanoma it was greater than 100 µM; with SR leukemia, 39.3 µM; with HOP-92 NSCLC, 19.2 µM; in the assay on SF-295 CNS, 8.16 µM. Further, the GI50 in the assay with SN12C renal was 41.2 µM; in the assay with RXF 393 renal, 31.4 µM; in the assay on HOP-62 NSCLC it was 20.4 µM; with U251 CNS it was 18.2 µM. Further, the TGI with HL-60(TB) leukemia is greater than 100 µM; with OVCAR-8 ovarian, 95.7 µM; in the assay with UACC-257 melanoma, greater than 100 µM; in the assay with SR leukemia, greater than 100 µM; in the assay on HOP-92 NSCLC, 52.7 µM; in the assay with SF-295 CNS, 24.8 µM. The TGI in the assay on SN12C renal was greater than 100 µM; in the assay with RXF 393 renal, 85 µM; in the assay with HOP-62 NSCLC it was 37.9 µM; in the assay with U251 CNS it was 39.8 µM.
For the compound `CC1(C)N=C(N)N=C(N)N1c1ccc(OCCCCOc2ccc(S(=O)(=O)F)cc2)c(Cl)c1`, the GI50 in the assay on HL-60(TB) leukemia is 0.0595 µM; in the assay on OVCAR-8 ovarian, 0.348 µM; in the assay on UACC-257 melanoma, 0.581 µM; in the assay with SR leukemia, 0.0445 µM; with HOP-92 NSCLC, 0.671 µM; in the assay with SF-295 CNS, 0.286 µM. For the same compound, the GI50 with SN12C renal was 0.0575 µM; in the assay with RXF 393 renal, 0.363 µM; in the assay on HOP-62 NSCLC it was 0.269 µM; in the assay with U251 CNS, 0.0506 µM. Further, the TGI is 13.7 µM with HL-60(TB) leukemia; 17.4 µM in the assay on OVCAR-8 ovarian; 14.1 µM in the assay on UACC-257 melanoma; 26.9 µM with SR leukemia; 10.9 µM in the assay on HOP-92 NSCLC; 11.5 µM with SF-295 CNS. The TGI in the assay with SN12C renal turned out to be 15.2 µM; in the assay with RXF 393 renal, 23.2 µM; with HOP-62 NSCLC it was 12.9 µM; in the assay with U251 CNS, 13.6 µM.
As to `CCC/C(=N/NC(=O)C(N)=O)C(CC)C(=O)CCC(=O)N(Cc1ccccc1)Cc1ccccc1` (configuration not stated), the TGI with HL-60(TB) leukemia, with OVCAR-8 ovarian, in the assay on UACC-257 melanoma, in the assay with SR leukemia, in the assay on HOP-92 NSCLC and with SF-295 CNS was greater than 100 µM in each case. Besides, the TGI in the assay with SN12C renal, with RXF 393 renal, in the assay with HOP-62 NSCLC and in the assay on U251 CNS was greater than 100 µM throughout.
With `O=C(Nc1cccc(Cl)c1)c1ccc(NC2=C(Cl)C(=O)N(Cc3ccccc3)C2=O)cc1`, the GI50 with HL-60(TB) leukemia is 3.79 µM; in the assay with OVCAR-8 ovarian, 11.5 µM; in the assay on UACC-257 melanoma, 21.3 µM; with SR leukemia, 1.39 µM; in the assay on HOP-92 NSCLC it was 9.09 µM; with SF-295 CNS, 17.7 µM. Further, the GI50 was 7.77 µM with SN12C renal, 9.55 µM in the assay with RXF 393 renal, 18.2 µM with HOP-62 NSCLC and 15.5 µM in the assay on U251 CNS. The TGI in the assay on HL-60(TB) leukemia was determined as 15.2 µM; in the assay on OVCAR-8 ovarian, 27.3 µM; in the assay on UACC-257 melanoma, 49.7 µM; in the assay with SR leukemia, 3.82 µM; in the assay with HOP-92 NSCLC, 29.5 µM; in the assay with SF-295 CNS, 56.9 µM. Further, the TGI with SN12C renal is 23 µM; with RXF 393 renal, 24.7 µM; in the assay on HOP-62 NSCLC, 33 µM; with U251 CNS, greater than 48.1 µM.
Regarding `C=C1C(=O)O[C@H]2[C@H]1CC/C(Cn1cc(-c3cc(C(F)(F)F)cc(C(F)(F)F)c3)nn1)=C\CC[C@@]1(C)O[C@@H]21`, the GI50 in the assay with HL-60(TB) leukemia was 0.19 µM; with OVCAR-8 ovarian it was 0.88 µM; in the assay with UACC-257 melanoma it was 1.46 µM; in the assay on SR leukemia, 0.103 µM; in the assay on HOP-92 NSCLC, 0.344 µM; in the assay on SF-295 CNS, 1.19 µM. The GI50 with SN12C renal was 0.702 µM; in the assay on RXF 393 renal it was 0.0274 µM; in the assay on HOP-62 NSCLC, 1.56 µM; in the assay on U251 CNS it was 1.44 µM. Moreover, the TGI was found to be 0.484 µM with HL-60(TB) leukemia; 2.2 µM in the assay on OVCAR-8 ovarian; 2.91 µM in the assay with UACC-257 melanoma; 0.444 µM in the assay on SR leukemia; 1.44 µM with HOP-92 NSCLC; 2.53 µM in the assay on SF-295 CNS. Also, the TGI in the assay on SN12C renal is 2.38 µM; in the assay on RXF 393 renal it was 0.102 µM; in the assay on HOP-62 NSCLC, 3.31 µM; in the assay on U251 CNS it was 2.76 µM.
Regarding `c1ccc2[nH]c(-c3ccc(NN=Nc4ccncc4)cc3)nc2c1`, the GI50 with HL-60(TB) leukemia is greater than 100 µM; in the assay on OVCAR-8 ovarian, 5.57 µM; in the assay with UACC-257 melanoma it was greater than 100 µM; with SR leukemia, 47.7 µM; in the assay with HOP-92 NSCLC, 91.5 µM; in the assay on SF-295 CNS, 16.4 µM. For the same compound, the GI50 in the assay with SN12C renal was greater than 100 µM; in the assay on RXF 393 renal, 58.1 µM; in the assay on HOP-62 NSCLC it was greater than 100 µM; in the assay with U251 CNS, 27.2 µM. In addition, the TGI with HL-60(TB) leukemia, in the assay on OVCAR-8 ovarian, in the assay on UACC-257 melanoma, in the assay with SR leukemia, in the assay on HOP-92 NSCLC and with SF-295 CNS was greater than 100 µM in each case. The TGI with SN12C renal, with RXF 393 renal, in the assay on HOP-62 NSCLC and in the assay with U251 CNS was greater than 100 µM each time.
On to `O=C(CO)CC(=O)C(=O)Nc1ccccc1`, for which the TGI in the assay with HL-60(TB) leukemia, in the assay on OVCAR-8 ovarian, in the assay with UACC-257 melanoma, with SR leukemia, in the assay with HOP-92 NSCLC and in the assay on SF-295 CNS was greater than 100 µM in each case. Further, the TGI in the assay with SN12C renal, in the assay with RXF 393 renal, with HOP-62 NSCLC and in the assay on U251 CNS was greater than 100 µM in each case.
For `COC(=O)C(=O)OC1(C(C)=O)CC2(c3ccccc3)OC1(c1ccccc1)c1ccccc12` (configuration not stated), the TGI in the assay on HL-60(TB) leukemia was greater than 100 µM; in the assay with OVCAR-8 ovarian, 30.3 µM; in the assay on UACC-257 melanoma, 31.6 µM; in the assay with SR leukemia, greater than 100 µM; in the assay with HOP-92 NSCLC, 27 µM; in the assay on SF-295 CNS, 31.4 µM. Moreover, the TGI was determined as 28.6 µM in the assay with SN12C renal, 29 µM with RXF 393 renal, 32.8 µM in the assay on HOP-62 NSCLC and 30.5 µM in the assay with U251 CNS.
Take `C/C(=N/Nc1nc2ccccc2n1C)c1ccccn1`: the GI50 in the assay on HL-60(TB) leukemia is 0.0177 µM; with OVCAR-8 ovarian, 0.118 µM; in the assay with UACC-257 melanoma, 0.0377 µM; in the assay on SR leukemia it was 0.047 µM; in the assay with HOP-92 NSCLC, 0.261 µM; with SF-295 CNS it was 0.28 µM. For the same compound, the GI50 in the assay on SN12C renal is 0.106 µM; in the assay with RXF 393 renal, 0.169 µM; in the assay with HOP-62 NSCLC it was 0.185 µM; in the assay on U251 CNS, 0.115 µM. Also, the TGI with HL-60(TB) leukemia was 0.391 µM; in the assay on OVCAR-8 ovarian, 16.2 µM; with UACC-257 melanoma, 0.489 µM; in the assay with SR leukemia it was greater than 89.7 µM; in the assay on HOP-92 NSCLC, 20 µM; in the assay with SF-295 CNS, 4.97 µM. The TGI in the assay with SN12C renal is 23 µM; in the assay with RXF 393 renal, 3.24 µM; in the assay with HOP-62 NSCLC it was 4.49 µM; with U251 CNS it was 19.7 µM.
As to `COc1ccc(/C=C\c2cc(OC)c(OC)c(OC)c2)cc1OC(=O)c1cccc(Cn2cc(CCOC(=O)[C@H](N)Cc3cn(C)c4ccccc34)nn2)c1`, the GI50 in the assay with HL-60(TB) leukemia is less than 0.01 µM; in the assay on OVCAR-8 ovarian, less than 0.01 µM; in the assay on UACC-257 melanoma it was 11.4 µM; with SR leukemia, less than 0.01 µM; in the assay on HOP-92 NSCLC it was 0.206 µM; with SF-295 CNS, 0.0295 µM. Also, the GI50 with SN12C renal, in the assay with RXF 393 renal, in the assay on HOP-62 NSCLC and with U251 CNS was less than 0.01 µM throughout. In addition, the TGI with OVCAR-8 ovarian is greater than 100 µM; with UACC-257 melanoma it was 47.6 µM; in the assay on SR leukemia it was 2.66 µM; with HOP-92 NSCLC it was greater than 88.2 µM; in the assay on SF-295 CNS it was 12.5 µM; with SN12C renal it was greater than 100 µM. In addition, the TGI in the assay with RXF 393 renal is 12.9 µM; in the assay with HOP-62 NSCLC, greater than 100 µM; in the assay on U251 CNS, greater than 100 µM.
Turning to `CCOC(=O)c1[nH]c(Br)c(-c2ccc(Br)cc2)c1Br`, the GI50 is 0.207 µM in the assay with HL-60(TB) leukemia; 0.597 µM in the assay with UACC-257 melanoma; 0.199 µM in the assay with SR leukemia; 1.58 µM in the assay on HOP-92 NSCLC; 0.145 µM with SF-295 CNS; 0.502 µM in the assay on SN12C renal. Besides, the GI50 in the assay on HOP-62 NSCLC was 0.514 µM; in the assay with U251 CNS, 0.394 µM. The TGI in the assay on HL-60(TB) leukemia is 0.596 µM; in the assay with OVCAR-8 ovarian it was 2.65 µM and 2.42 µM; with UACC-257 melanoma, 42.9 µM; with SR leukemia, 11.1 µM; in the assay with HOP-92 NSCLC it was 7.86 µM and 7.98 µM; with SF-295 CNS it was 0.763 µM and 0.815 µM. The TGI was 4.75 µM in the assay on SN12C renal; 8.14 µM in the assay with RXF 393 renal; 4.74 µM and 2.81 µM in the assay with HOP-62 NSCLC; 3.55 µM and 1.93 µM in the assay on U251 CNS.
As to `Clc1cc(Cc2cc(Cl)c(Cl)c3c2OCOC3)c2c(c1Cl)COCO2`, the TGI with HL-60(TB) leukemia was greater than 100 µM; in the assay on OVCAR-8 ovarian it was greater than 100 µM; in the assay with UACC-257 melanoma it was greater than 100 µM; with SR leukemia, greater than 100 µM; in the assay on HOP-92 NSCLC, 41.8 µM; with SF-295 CNS it was 78.8 µM. The TGI in the assay with SN12C renal was greater than 100 µM; in the assay with RXF 393 renal, 70.3 µM; with HOP-62 NSCLC it was 63 µM; with U251 CNS, greater than 100 µM.
For the compound `Nc1ncnc2c1nc(Cl)n2C1OC2COP(=O)(O)OC2C1O` (configuration not stated), the TGI in the assay on HL-60(TB) leukemia was greater than 209 µM; with OVCAR-8 ovarian, greater than 300 µM; in the assay on UACC-257 melanoma, greater than 300 µM; in the assay with SR leukemia it was greater than 300 µM; in the assay on HOP-92 NSCLC it was 229 µM and > 92.9 µM; in the assay on SF-295 CNS, greater than 300 µM. Further, the TGI in the assay on SN12C renal was greater than 300 µM; in the assay with RXF 393 renal, greater than 300 µM; with HOP-62 NSCLC, 163 µM and > 100 µM; with U251 CNS it was greater than 300 µM.
